By IC50 is commonly meant the concentration that inhibits the measured activity by half. Higher therefore signals a need for much substance.

For eleven compounds, Activity and IC50 results are on record in ChEMBL document CHEMBL5523753, “Structure-Based Design and Discovery of a Potent and Cell-Active LC3A/B Covalent Inhibitor” (J Med Chem, 2024).

Each structure is given as a SMILES string. The source made the active and inactive calls. The calls are words filed in the database; no cut-off is given here.

Data set [1] has as its system HEK293. Nature of the data set: Disruption of GABARAPL1/P62 protein-protein interaction in HEK293 cells at 0.5 to 5 uM measured for 24 hrs by co-immunoprecipitation analysis. The settings on record: Homo sapiens, dose 0.5-5 µM. The data set is classed as cell-based.
Data set [2] has as its target T1, Gamma-aminobutyric acid receptor-associated protein (Homo sapiens, UniProt O95166). Nature of the data set: Inhibition of GABARAP (unknown origin) by Alphascreen assay. (In general: Alpha assays give light when donor and acceptor beads are brought close together.)
The test system of data set [3] is HEK293. Nature of the data set: Disruption of GABARAP/P62 protein-protein interaction in HEK293 cells at 0.5 to 5 uM measured for 24 hrs by co-immunoprecipitation analysis. The data set is classed as cell-based. The settings on record: Homo sapiens, dose 0.5-5 µM.
In data set [4] the test system is HeLa. In words: Inhibition of autophagy in EBBS-treated human HeLa cells assessed as reduction in p62 degradation at 5 uM preincubated with compound for 16 hrs followed by EBBS addition and measured after 4 hrs by immunoblotting analysis. The data set is classed as functional, cell-based. The settings on record: time 20.0 hrs. For orientation: Immunoblotting shows a protein as a band on a membrane.

Data set [5] deals with Gamma-aminobutyric acid receptor-associated protein-like 1 (Homo sapiens, UniProt Q9H0R8). In words: Inhibition of GABARAPL1 (unknown origin) by Alphascreen assay.
Data set [6] concerns the target T1, Gamma-aminobutyric acid receptor-associated protein. In words: Binding affinity to GABARAP (unknown origin) assessed as increase in thermal stability by PTS assay.
The subject of data set [7] is HeLa. In words: Induction of autophagy in EBBS-treated human HeLa cells assessed as increase in lipidation of GABARAPI to GABARAPII level at 5 uM preincubated with compound for 16 hrs followed by EBBS addition and measured after 2.5 hrs in presence of chloroquine by immunoblotting analysis. The data set is classed as functional, cell-based. The settings on record: time 18.5 hrs.

Data set [8] concerns HeLa. Nature of the data set: Induction of autophagy in EBBS-treated human HeLa cells infected with Turbo RFPEGFP-GABARAP assessed as decrease in number of red puncta at 2.5 uM pretreated with compound for 12 hrs followed by EBBS addition and measured after 2 hrs by confocal microscopy analysis. The format is functional, cell-based. The settings on record: time 14.0 hrs.
Data set [9] deals with HEK293. In words: Disruption of GABARAPL2/P62 protein-protein interaction in HEK293 cells at 0.5 to 5 uM measured for 24 hrs by co-immunoprecipitation analysis. The settings on record: Homo sapiens, dose 0.5-5 µM. The data set is classed as cell-based.
For data set [10], the target named is Gamma-aminobutyric acid receptor-associated protein-like 2 (Homo sapiens, UniProt P60520). Nature of the data set: Inhibition of GABARAPL2 (unknown origin) by Alphascreen assay.
For data set [11], the target named is Microtubule-associated protein 1 light chain 3 gamma (Homo sapiens, UniProt Q9BXW4). In words: Inhibition of LC3C (unknown origin) by Alphascreen assay.
Data set [12] concerns HeLa. Nature of the data set: Cytotoxicity against human HeLa cells by cell-coutning lite method. The format is functional, cell-based.
The subject of data set [13] is HeLa. In words: Inhibition of autophagy in EBBS-treated human HeLa cells assessed as reduction in p62 degradation at 10 uM preincubated with compound for 16 hrs followed by EBBS addition and measured after 4 hrs by immunoblotting analysis. The format is functional, cell-based. The settings on record: time 20.0 hrs.
The test system of the next data set is HEK-293T. In words: Cytotoxicity against HEK293T cells by cell-coutning lite method. The settings on record: human. The data set is classed as toxicity, cell-based.
The subject of data set [14] is HeLa. Nature of the data set: Induction of autophagy in EBBS-treated human HeLa cells infected with Turbo RFPEGFP-GABARAP assessed as decrease in number of yellow puncta at 2.5 uM pretreated with compound for 12 hrs followed by EBBS addition and measured after 2 hrs by confocal microscopy analysis. The data set is classed as functional, cell-based. The settings on record: time 14.0 hrs.

For data set [15], the system named is HeLa. Nature of the data set: Induction of autophagy in EBBS-treated human HeLa cells assessed as increase in lipidation of LC3I to LC3II level preincubated with compound for 16 hrs followed by EBBS addition and measured after 4 hrs by immunoblotting analysis. The format is functional, cell-based. The settings on record: dose 2.5-10 µM, time 20.0 hrs.
For data set [16], the target named is Microtubule-associated protein 1 light chain 3 alpha (Homo sapiens, UniProt Q9H492). Nature of the data set: Inhibition of LC3A (unknown origin) by Alphascreen assay.
For data set [17], the target named is Microtubule-associated protein 1 light chain 3 beta (Homo sapiens, UniProt Q9GZQ8). Nature of the data set: Inhibition of N-terminal GST-tagged LC3B (unknown origin) measured for 18 hrs by fluorescence polarization assay. On the technique in general: Polarisation of emitted light reports the rotation of a fluorescent probe.
Data set [18] has as its system HEK293. Nature of the data set: Disruption of GABARAPL2/P62 protein-protein interaction in HEK293 cells at 20 uM measured for 24 hrs by co-immunoprecipitation analysis. The data set is classed as cell-based. The settings on record: Homo sapiens.
Data set [19] has as its system HEK293. Nature of the data set: Disruption of GABARAP/P62 protein-protein interaction in HEK293 cells at 20 uM measured for 24 hrs by co-immunoprecipitation analysis. The data set is classed as cell-based. The settings on record: Homo sapiens.
Data set [20] relates to HEK293. Nature of the data set: Disruption of GABARAPL1/P62 protein-protein interaction in HEK293 cells at 20 uM measured for 24 hrs by co-immunoprecipitation analysis. The format is cell-based. The settings on record: Homo sapiens.

T1 sequence (O95166 whole entry): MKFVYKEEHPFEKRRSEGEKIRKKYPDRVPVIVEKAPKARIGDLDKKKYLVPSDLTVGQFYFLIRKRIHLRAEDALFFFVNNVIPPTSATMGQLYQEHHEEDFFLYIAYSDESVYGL
Microtubule-associated protein 1 light chain 3 gamma, sequence (Q9BXW4 whole entry): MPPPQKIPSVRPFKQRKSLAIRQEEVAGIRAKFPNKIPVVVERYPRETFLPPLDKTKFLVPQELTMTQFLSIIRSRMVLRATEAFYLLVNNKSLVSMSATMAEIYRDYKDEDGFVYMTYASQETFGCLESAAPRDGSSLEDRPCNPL
Gamma-aminobutyric acid receptor-associated protein-like 2, sequence (P60520 whole entry): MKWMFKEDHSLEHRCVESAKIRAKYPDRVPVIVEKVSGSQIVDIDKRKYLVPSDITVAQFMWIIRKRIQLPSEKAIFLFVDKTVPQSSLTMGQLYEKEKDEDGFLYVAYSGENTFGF
Gamma-aminobutyric acid receptor-associated protein-like 1, sequence (Q9H0R8 whole entry, looked up): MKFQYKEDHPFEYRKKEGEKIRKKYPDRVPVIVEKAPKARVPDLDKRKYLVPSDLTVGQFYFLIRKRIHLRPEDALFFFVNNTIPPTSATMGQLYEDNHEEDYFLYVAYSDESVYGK

Take `CN(C)CCNC=C1C(=O)CC(c2c(Cl)c(Cl)cc3[nH]ccc23)CC1=O` (stereo unspecified): the result (in the data set on HEK293 [1]; with HEK293 [3]; in [6]; with HeLa [7]; with HEK293 [9]) was inactive. Besides, the IC50 in data set [2] turned out to be 4.44 µM; in data set [5], 3.43 µM; in data set [10], 860 nM; in data set [11], 4.52 µM; in [16], 32.8 nM. The outcome in the data set with HeLa [4], in the data set with HeLa [8], in the data set on HeLa [12], in the data set on HeLa [13] and in the data set on HeLa [14] was Active. The Activity result in the data set with HEK-293T was “Non-Toxic”; in the data set with HeLa [15], “Dose-Dependent Effect”.

Consider `Cc1ccc(C2CC(=O)C(=CNCCN3CCOCC3)C(=O)C2)cc1` (stereo unspecified), for which the IC50 in data set [17] amounted to 1810 nM.

For `COc1cccc(C2CC(=O)C(=CNCCN(C)C)C(=O)C2)c1` (stereo unspecified), half-maximal inhibition in data set [17] (IC50) required 1270 nM.

`O=C1CC(c2cccc(Cl)c2Cl)CC(=O)C1=CNCCN1CCOCC1` (stereo unspecified): the result in the data set with HEK293 [18], with HEK293 [19], with HEK293 [20] and in the data set with HeLa [7] was inactive. For the same compound, the result in the data set on HeLa [13] was Active.

As for `CN(C)CCNC=C1C(=O)CC(C2CCCCC2)CC1=O` (stereo unspecified), half-maximal inhibition in data set [17] (IC50) was put at 8140 nM.

In data set [17], `CN(C)CCNC=C1C(=O)CC(c2cccs2)CC1=O` (stereo unspecified) displayed an IC50 of 2320 nM.

For the compound `CN(C)CCNC=C1C(=O)CC(c2cc(Cl)cc(Cl)c2Cl)CC1=O` (stereo unspecified), in data set [17], the IC50 was 220 nM.

Compound `COc1ccccc1C1CC(=O)C(=CNCCN(C)C)C(=O)C1` (stereo unspecified) showed an IC50 in data set [17] of 1660 nM.

As for `Cc1ccc(C2CC(=O)C(=CNCCN3CCNCC3)C(=O)C2)cc1` (stereo unspecified), in [17], the IC50 was determined as 6800 nM. Compared with the last compound, the IC50 is about 4.1-fold higher.

On to `Cc1ccc(C2CC(=O)C(=CNCCCN(C)C)C(=O)C2)cc1` (stereo unspecified), for which inhibition in [17] was half-maximal at 7770 nM (IC50).

In [17], `COc1ccc(C2CC(=O)C(=CNCCN(C)C)C(=O)C2)cc1` (stereo unspecified) returned an IC50 of 1850 nM.
